The target in assay [1] is T1, Avi-KRAS G12D (1-169) GppNHp/RAF1 RBD-3×FLAG (52-151) (Homo sapiens, UniProt P01116, G12D).
T1 construct: Avi-KRAS G12D (1-169) GppNHp
Briefly: HTRF Raf1-KRAS G12D-GppNHp disruption assay. It is filed as biochemical. As to conditions: 1 h incubation. The gist of the method:
(§1)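 HTRF read-out (320 nm excitation, 615 nm emission) after two 1 h room-temperature incubations, first with protein mix, then detection reagents. Ten-point dilution series starting at 100 μM; results given as % activity relative to DMSO at 100%.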

Assay [2] concerns the target T2, Avi-KRAS G12D/Q25A (1-169) GppNHp/3×FLAG-PI3KCA (157-299) (Homo sapiens, UniProt P01116, G12D/Q25A).
T2 construct: Avi-KRAS G12D/Q25A (1-169) GppNHp
Briefly: HTRF PI3KCA-KRAS G12D/Q25A-GppNHp disruption assay. Format: biochemical. As to conditions: 1 h incubation. In outline: as §1

T2 sequence (P01116 1-169 isoform P01116-2 G12D/Q25A limits assumed): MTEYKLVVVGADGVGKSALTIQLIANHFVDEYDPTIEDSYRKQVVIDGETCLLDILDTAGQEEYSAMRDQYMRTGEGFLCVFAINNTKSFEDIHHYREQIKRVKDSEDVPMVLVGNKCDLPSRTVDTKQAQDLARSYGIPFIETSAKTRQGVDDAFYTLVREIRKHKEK
T1 sequence (P01116 1-169 isoform P01116-2 G12D limits assumed): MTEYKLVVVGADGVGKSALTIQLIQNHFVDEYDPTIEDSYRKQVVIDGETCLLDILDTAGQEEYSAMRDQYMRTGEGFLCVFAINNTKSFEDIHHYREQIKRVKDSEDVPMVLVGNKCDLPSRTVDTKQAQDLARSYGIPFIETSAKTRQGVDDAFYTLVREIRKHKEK

Take `C[C@@H]1CN(c2nc(OC[C@]34CCCN3C[C@H](F)C4)nc3c(F)c(-c4ccc(F)c5sc(N)nc45)c(C(F)(F)F)cc23)CCN1` [Compound 210]: the IC50 in assay [1] fell in the range of 1 to 10 µM; in assay [2] it was 10 to 30 µM.

Take `Nc1nc2c(-c3c(C(F)(F)F)cc4c(N5CCNCC5)nc(OCC56CCCN5CC(F)(F)C6)nc4c3F)ccc(F)c2s1` (centres unmarked) [Compound 211]: the values for the IC50 in assay [1] and in assay [2] were 1 to 10 µM and 10 to 30 µM, respectively.

For `C[C@@H]1CN(c2nc(OC[C@@]34CCCN3C[C@H](F)C4)nc3c(F)c(-c4ccc(F)c5sc(N)nc45)c(C(F)(F)F)cc23)CCN1` [Compound 212], the IC50 lay in the range of 0.1 to 1 µM in assay [1] and 1 to 10 µM in assay [2].

With `C[C@@H]1CN(c2nc(OC[C@]34CCCN3C[C@H](F)C4)nc3c(F)c(-c4ccc(F)c5sc(N)nc45)c(C(F)(F)F)cc23)[C@@H](C)CN1` [Compound 214], the IC50 in assay [1] fell in the range of 0.1 to 1 µM; in assay [2], 10 to 30 µM.

With `C[C@@H]1CN(c2nc(OC[C@]34CCCN3C[C@H](F)C4)nc3c(F)c(-c4ccc(F)c5sc(N)nc45)c(C(F)(F)F)cc23)C[C@H](C)N1` [Compound 215], the IC50 in assay [1] lay in the range of 1 to 10 µM; in assay [2] it was 10 to 30 µM.

As for `COc1cc2c(N3CCNCC3)nc(OCC34CCCN3CCC4)nc2c(F)c1-c1ccc(F)c2sc(N)nc12` [Compound 216, 7-fluoro-4-(8-fluoro-6-methoxy-4-(piperazin-1-yl)-2-((tetrahydro-1H-pyrrolizin-7a(5H)-yl)methoxy)quinazolin-7-yl)benzo[d]thiazol-2-amine], the IC50 in assay [1] and in assay [2] was 1 to 10 µM in each case.

For `CN1CCC[C@H]1COc1nc(N2CCNCC2)c2cc(C(F)F)c(-c3ccc(F)c4sc(N)nc34)c(F)c2n1` [Compound 217, 4-(6-(difluoromethyl)-8-fluoro-2-(((S)-1-methylpyrrolidin-2-yl)methoxy)-4-(piperazin-1-yl)quinazolin-7-yl)-7-fluorobenzo[d]thiazol-2-amine], the IC50 in assay [1] and in assay [2] was 1 to 10 µM in each case.

As for `C[C@H]1CNCCN1c1nc(OC[C@@]23CCCN2C[C@@H](F)C3)nc2c(F)c(-c3ccc(F)c4sc(N)nc34)c(C(F)(F)F)cc12` [Compound 222], the values for the IC50 in assay [1] and in assay [2] were 1 to 10 µM and 10 to 30 µM, respectively.

For the compound `C[C@@H]1CN(c2nc(OC[C@@]34CCCN3C[C@@H](F)C4)nc3c(F)c(-c4ccc(F)c5sc(N)nc45)c(C(F)(F)F)cc23)[C@@H](C)CN1` [Compound 224], the IC50 in assay [1] and in assay [2] was 10 to 30 µM each time.

As to `C[C@@H]1CN(c2nc(OC[C@@]34CCCN3C[C@@H](F)C4)nc3c(F)c(-c4ccc(F)c5sc(N)nc45)c(C(F)(F)F)cc23)CCN1` [Compound 225], the results for the IC50 in assay [1] and in assay [2] were 1 to 10 µM and 10 to 30 µM, respectively.

For `Nc1nc2c(-c3c(C(F)F)cc4c(N5CCNCC5)nc(OCC56CCCN5CCC6)nc4c3F)ccc(F)c2s1` [Compound 227], the IC50 in assay [1] and in assay [2] was 1 to 10 µM in each case.

`Nc1nc2c(-c3c(OC(F)(F)F)cc4c(N5CCNCC5)nc(OCC56CCCN5CCC6)nc4c3F)ccc(F)c2s1` [Compound 228, 7-fluoro-4-(8-fluoro-4-(piperazin-1-yl)-2-((tetrahydro-1H-pyrrolizin-7a(5H)-yl)methoxy)-6-(trifluoromethoxy)quinazolin-7-yl)benzo[d]thiazol-2-amine]: the IC50 in assay [1] and in assay [2] was 1 to 10 µM in each case.

As for `C[C@@H]1CN(c2nc(OC[C@@]34CCCN3C[C@@H](F)C4)nc3c(F)c(-c4ccc(F)c5sc(N)nc45)c(C(F)(F)F)cc23)C[C@H](C)N1` [Compound 229], the IC50 in assay [1] and in assay [2] was 10 to 30 µM in each case.

As for `CN(c1nc(OCC23CCCN2CCC3)nc2c(F)c(-c3ccc(F)c4sc(N)nc34)c(C(F)(F)F)cc12)[C@@H]1CCN(C(=O)C2CN2)C1` (some centres unmarked) [Compound 230], the IC50 in assay [1] and in assay [2] was 1 to 10 µM in each case.

Turning to `Nc1nc2c(-c3c(OC(F)(F)F)cc4c(N5CC6CCC(C5)N6)nc(OCC56CCCN5CCC6)nc4c3F)ccc(F)c2s1` [Compound 231], the IC50 in assay [1] and in assay [2] was 1 to 10 µM each time.

In the case of `Nc1nc2c(-c3c(OC(F)(F)F)cc4c(N5CC6CCC(C5)N6)nc(OC[C@@]56CCCN5C[C@H](F)C6)nc4c3F)ccc(F)c2o1` [Compound 233], the IC50 in assay [1] and in assay [2] was 1 to 10 µM each time.

In the case of `Nc1nc2c(-c3c(OC(F)F)cc4c(N5CCNCC5)nc(OCC56CCCN5CCC6)nc4c3F)ccc(F)c2s1` [Compound 234, 4-(6-(difluoromethoxy)-8-fluoro-4-(piperazin-1-yl)-2-((tetrahydro-1H-pyrrolizin-7a(5H)-yl)methoxy)quinazolin-7-yl)-7-fluorobenzo[d]thiazol-2-amine], the IC50 in assay [1] and in assay [2] was 1 to 10 µM each time.

As to `Nc1nc2c(-c3c(C(F)(F)F)cc4c(NC5CN(C(=O)C6CN6)C5)nc(OCC56CCCN5CCC6)nc4c3F)ccc(F)c2s1` (centres unmarked) [Compound 235], the half-inhibitory concentration (IC50) was in the range of 1 to 10 µM in assay [1] and 10 to 30 µM in assay [2].

Take `Nc1nc2c(-c3c(-c4ccoc4)cc4c(N5CC6CCC(C5)N6)nc(OC[C@@]56CCCN5C[C@H](F)C6)nc4c3F)ccc(F)c2s1` [Compound 237]: the figures for the half-maximal inhibitory concentration (IC50) in assay [1] and in assay [2] were 0.1 to 1 µM and 1 to 10 µM, respectively.

As to `Nc1nc2c(-c3c(C(F)(F)F)cc4c(N5CC6CC5CN6)nc(OC[C@@]56CCCN5C[C@H](F)C6)nc4c3F)ccc(F)c2s1` (some centres unmarked) [Compound 239], the IC50 in assay [1] and in assay [2] was 1 to 10 µM throughout.

For the compound `Nc1nc2c(-c3c(OC(F)(F)F)cc4c(N5CC6CC5CN6)nc(OC[C@@]56CCCN5C[C@H](F)C6)nc4c3F)ccc(F)c2s1` (some centres unmarked) [Compound 240], the IC50 in assay [1] and in assay [2] was 1 to 10 µM throughout.

Take `Nc1nc2c(-c3c(Cl)cc4c(N5CCCNCC5)ncnc4c3F)ccc(F)c2s1` [Compound 242]: the half-maximal inhibitory concentration (IC50) in assay [1] and in assay [2] was 10 to 30 µM throughout.

As to `Nc1nc2c(-c3c(Cl)cc4c(N5CC6CNC(C6)C5)ncnc4c3F)ccc(F)c2s1` (centres unmarked) [Compound 243], the IC50 in assay [1] and in assay [2] was 10 to 30 µM in each case.

For `CN1CC(C)(C)C[C@H]1COc1nc(N2CC3CCC(C2)N3)c2cc(C(F)(F)F)c(-c3ccc(F)c4sc(N)nc34)c(F)c2n1` [Compound 253], the IC50 in assay [1] and in assay [2] was 1 to 10 µM in each case.

In the case of `Nc1nc2c(-c3c(C(F)(F)F)cc4c(NC5CC6CC[C@@H](C5)N6)nc(OCC56CCCN5CCC6)nc4c3F)ccc(F)c2s1` (some centres unmarked) [Compound 263], the half-maximal inhibitory concentration (IC50) in assay [1] and in assay [2] was 1 to 10 µM in each case.

With `Nc1nc2c(-c3c(C(F)(F)F)cc4c(NC5CC6CC[C@H]5N6)nc(OCC56CCCN5CCC6)nc4c3F)ccc(F)c2s1` (some centres unmarked) [Compound 265], the IC50 in assay [1] fell in the range of 0.1 to 1 µM; in assay [2], 1 to 10 µM.

Take `Nc1nc2c(-c3c(C(F)(F)F)cc4c(NC5CC6CC[C@H]5N6)nc(OCC56CCCN5CCC6)nc4c3F)ccc(F)c2s1` (some centres unmarked) [Compound 266]: the IC50 in assay [1] was in the range of 0.1 to 1 µM; in assay [2], 1 to 10 µM.

On to `CN(c1nc(OCC23CCCN2CCC3)nc2c(F)c(-c3ccc(F)c4sc(N)nc34)c(C(F)(F)F)cc12)C1CC2CC[C@@H](C1)N2` (some centres unmarked) [Compound 268], for which the IC50 in assay [1] and in assay [2] was 1 to 10 µM each time.

For `NCC(=O)N1C2CCC1CN(c1nc(OC[C@@]34CCCN3C[C@H](F)C4)nc3c(F)c(-c4ccc(F)c5sc(N)nc45)c(C(F)(F)F)cc13)C2` [Compound 272], the IC50 fell in the range of 0.1 to 1 µM in assay [1] and 1 to 10 µM in assay [2].

As for `NC(=O)N1C2CCC1CN(c1nc(OC[C@@]34CCCN3C[C@H](F)C4)nc3c(F)c(-c4ccc(F)c5sc(N)nc45)c(C(F)(F)F)cc13)C2` [Compound 273], the IC50 in assay [1] and in assay [2] was 1 to 10 µM throughout.

Regarding `CN(c1nc(OCC23CCCN2CCC3)nc2c(F)c(-c3ccc(F)c4sc(N)nc34)c(C(F)(F)F)cc12)C1CCNCC1` [Compound 280], the half-inhibitory concentration (IC50) in assay [1] and in assay [2] was 1 to 10 µM in each case.

With `COc1cc2c(N3C[C@@H](C)NC[C@@H]3C)nc(OC[C@@]34CCCN3C[C@H](F)C4)nc2c(F)c1-c1ccc(F)c2sc(N)nc12` [Compound 281, 4-(4-((2S,5R)-2,5-dimethylpiperazin-1-yl)-8-fluoro-2-(((2R,7aS)-2-fluorotetrahydro-1H-pyrrolizin-7a(5H)-yl)methoxy)-6-methoxyquinazolin-7-yl)-7-fluorobenzo[d]thiazol-2-amine], the IC50 in assay [1] and in assay [2] was 10 to 30 µM in each case.

With `C[C@@H]1CN(c2nc(OC[C@@]34CCCN3C[C@H](F)C4)nc3c(F)c(-c4ccc(F)c5sc(N)nc45)c(OC(F)F)cc23)[C@@H](C)CN1` [Compound 282, 4-(6-(difluoromethoxy)-4-((2S,5R)-2,5-dimethylpiperazin-1-yl)-8-fluoro-2-(((2R,7aS)-2-fluorotetrahydro-1H-pyrrolizin-7a(5H)-yl)methoxy)quinazolin-7-yl)-7-fluorobenzo[d]thiazol-2-amine], the IC50 in assay [1] and in assay [2] was 1 to 10 µM throughout.

`CO[C@@H]1C[C@@H](COc2nc(N3CC4CCC(C3)N4)c3cc(C(F)(F)F)c(-c4ccc(F)c5sc(N)nc45)c(F)c3n2)N(C)C1` [Compound 284]: the IC50 in assay [1] and in assay [2] was 0.1 to 1 µM throughout.

In the case of `Nc1nc2c(-c3c(C(F)(F)F)cc4c(NC5C[C@H]6CCC5N6)nc(OCC56CCCN5CCC6)nc4c3F)ccc(F)c2s1` (some centres unmarked) [Compound 286], the IC50 in assay [1] and in assay [2] was 0.1 to 1 µM throughout.

`CN(c1nc(OC[C@@]23CCCN2C[C@H](F)C3)nc2c(F)c(-c3ccc(F)c4sc(N)nc34)c(C(F)(F)F)cc12)C1C2C[C@H]1CN2` (some centres unmarked) [Compound 288]: the IC50 in assay [1] lay in the range of 0.1 to 1 µM; in assay [2], 1 to 10 µM.

For `C[C@@H]1CNC[C@@H]1N(C)c1nc(OC[C@@]23CCCN2C[C@H](F)C3)nc2c(F)c(-c3ccc(F)c4sc(N)nc34)c(C(F)(F)F)cc12` [Compound 292], the half-inhibitory concentration (IC50) in assay [1] and in assay [2] was 1 to 10 µM in each case.
